The values that follow come from patent US20050026950A1, “Methods of therapeutic treatment using retinoids to achieve consistent bioavailability” (Allergan, Inc., priority 2003, published 2005).

The conditions of series [1]: oral, cited from earlier work.
For series [2] the following is noted: cited from earlier work.
A further series has as its system RARs. Description: RAR activation. Format: cell-based.
The subject of the next series is RXRs. The series is described as follows: RXR activation. Type of series: cell-based.
Series [3] in a line: Patient with severe psoriasis taking Ortho-Novum treated with tazarotene. Type of series: in vivo, human. The settings on record: female, human, in vivo, tazarotene 6 mg per day, mean ±SD. The text has this: The patient presents symptoms of severe psoriasis. The symptoms include lesions approximately 4 to 10 centimeters across appearing as raised patches of wine red skin many of which are covered in silvery white scales. The lesions are mostly dry and rough, and quite often noticeably warm to the touch. The lesions are present on the elbows, knees, scalp, and groin area. The patient experiences intense burning and itching associated with the lesions.
The patient is currently taking Ortho-Novum® for contraception.
Tazarotene at a dose of 6 mg per day is prescribed.

A further series deals with T1, RAR-α (Homo sapiens, UniProt P10276).
T1 sequence (P10276 1-462): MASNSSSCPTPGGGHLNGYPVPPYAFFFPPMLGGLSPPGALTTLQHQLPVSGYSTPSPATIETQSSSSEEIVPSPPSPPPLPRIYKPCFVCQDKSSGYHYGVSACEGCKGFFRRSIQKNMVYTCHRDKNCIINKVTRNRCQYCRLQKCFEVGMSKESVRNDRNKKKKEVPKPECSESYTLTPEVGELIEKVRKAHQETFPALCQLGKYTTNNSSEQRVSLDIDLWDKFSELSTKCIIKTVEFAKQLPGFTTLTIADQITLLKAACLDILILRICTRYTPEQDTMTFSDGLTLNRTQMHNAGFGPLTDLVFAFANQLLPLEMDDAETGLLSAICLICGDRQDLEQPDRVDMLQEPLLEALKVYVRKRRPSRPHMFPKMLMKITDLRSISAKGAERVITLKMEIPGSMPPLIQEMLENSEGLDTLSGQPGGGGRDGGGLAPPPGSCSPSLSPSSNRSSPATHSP
Description: RAR-α activity. Type of series: cell-based.

Series [4] in a line: Food effect (high-fat meal vs 8-10 hour fast) on pharmacokinetics of tazarotenic acid after oral tazarotene in normal healthy subjects. Format: in vivo, human. To be noted: 6.3 mg oral tazarotene, fed vs fasted. The text has this:
For the purposes of this application, the bioavailability of a drug may be based on the human pharmokinetic parameters of maximum blood concentration (Cmax) and Area under the blood concentration-time curve (AUC).

The conditions of series [5]: published data (N = 525); cited from earlier work.
The conditions of series [6]: published data (N = 525); cited from earlier work. The source holds these as a separate data set.

Like-named read-outs stand apart in the source and are kept apart here.

As to `C=C(c1ccc(C(=O)O)cc1)c1cc2c(cc1C)C(C)(C)CCC2(C)C` [bexarotene], in series [1], the “impact of food on bioavailability” value was “bioavailability is increased in the presence of food”. Besides, in [2] (coadministration with tamoxifen), the “effect on plasma concentration of tamoxifen” value is reported as “reduced plasma concentration of tamoxifen”.
Consider `CC1(C)CC[S+]([O-])c2ccc(C#Cc3ccc(C(=O)O)cn3)cc21` (centres unmarked) [AGN 190844], for which, in the series on RARs, the “activation of the RARs” value is listed as “does not activate either the RARs or the RXRs”. In the series with RXRs, the “activation of the RXRs” value was “does not activate either the RARs or the RXRs”.
Broadly, the Cmax is the maximum level reached in the sampled fluid or tissue. Consider `CC1(C)CCSc2ccc(C#Cc3ccc(C(=O)O)cn3)cc21` [tazarotenic acid], for which the “receptor specificity and selectivity” value with RARs (RARs, RAR-β and RAR-γ) was “specificity for the RARs and selectivity for RAR-β and RAR-γ”. Further, the “activation of the RXRs” value in the series on RXRs was “does not activate the RXRs”. Besides, the AUC(0-t) in series [3] (read-out: AUC0-24 for tazarotenic acid) is 379 ± 78 ng·h/mL. In addition, the Cmax in series [3] (read-out: Cmax for tazarotenic acid) was found to be 111 ± 37 ng/mL. In addition, on RAR-α, the RAR-α activity result was “minimal RAR-α activity”. Also, the “90% confidence intervals (CI) of AUC ratios (test/reference)” value in series [4] is given as “completely within the 80-125% boundary”. For the same compound, in series [4] (single and multiple dose), the “Effect of high-fat meal on bioavailability or pharmacokinetics of tazarotenic acid” value was “does not substantially affect”.
As to `CC1=C(/C=C/C(C)=C/C=C/C(C)=C\C(=O)O)C(C)(C)CCC1` [isotretinoin], in [5], the Cheilitis is 472 (90.2) number (%) of patients, the Conjunctivitis is on record as 201 (38.4) number (%) of patients, the “Desquamation central face/Desquamation” value is 187 (35.8) number (%) of patients and the Dry Skin was 172 (32.9) number (%) of patients. Besides, in series [5], the Dry nose was 136 (26.0) number (%) of patients, the Epistaxis was 121 (23.1) number (%) of patients, the “Fingertip peeling/Desquamation” value was 63 (12.0) number (%) of patients and the Headache is recorded as 44 (8.4) number (%) of patients. For the same compound, in series [5], the Irritation of eyes was 85 (16.3) number (%) of patients, the Pruritus is 127 (24.3) number (%) of patients, the “Red Scaly face/Desquamation” value is given as 54 (10.3) number (%) of patients and the “Skin fragility/Skin disorder” value is listed as 164 (31.4) number (%) of patients. Further, the “total dose needed to reach the same peak blood concentration in the fasted state as following a high fat meal” value in [1] (fasted vs high fat meal) is on record as “more than doubled”. For the same compound, the “impact of food on bioavailability” value in [1] is “bioavailability is increased in the presence of food”. The “effect on blood concentrations of ethinyl estradiol and norethindrone” value in series [2] (coadministered contraceptive tablets) is “decreases blood concentrations”.
In the case of `COc1cc(C)c(/C=C/C(C)=C/C=C/C(C)=C/C(=O)O)c(C)c1C` [acitretin], the “impact of food on bioavailability” value in [1] is listed as “bioavailability is increased in the presence of food”. Moreover, the “effect on contraceptive effect of microdosed progestin “minipill” preparations” value in [2] (in vivo) is given as “interferes with the contraceptive effect”. Further, in series [6], the Alopecia is on record as 319 (60.8) number (%) of patients, the Arthralgia is recorded as 102 (19.4) number (%) of patients, the Atrophy of skin is 64 (12.2) number (%) of patients and the Back pain was 41 (7.8) number (%) of patients. In series [6], the Cheilitis is on record as 429 (81.7) number (%) of patients, the “Dry Skin” value is 174 (33.1) number (%) of patients, the “Dry mouth/Oral dryness” value is on record as 76 (14.5) number (%) of patients and the Epistaxis is given as 61 (11.6) number (%) of patients. For the same compound, in series [6], the “Erythematous rash/Erythema” value was 57 (10.9) number (%) of patients, the Hyperesthesia was 66 (12.6) number (%) of patients, the “Nail Disorder” value is given as 170 (32.4) number (%) of patients and the Paresthesia was 56 (10.7) number (%) of patients. In addition, in [6], the Paronychia/Nail disorder was 66 (12.6) number (%) of patients, the Pruritus was 157 (29.9) number (%) of patients, the Rhinitis is on record as 153 (29.1) number (%) of patients and the Rigors/Chills is listed as 67 (12.8) number (%) of patients. Further, in series [6], the “Skin peeling/Desquamation” value is recorded as 345 (65.7) number (%) of patients, the “Sticky skin/Skin disorder” value is 129 (24.6) number (%) of patients and the Xerophthalmia/Eye disorder is recorded as 112 (21.3) number (%) of patients.
